Measured values as given in a melting point compilation (Tetko et al.; mined from patent text by program, amines drawn as free bases though some values may be those of a salt).

SMILES | melting point
C#CCN(C)C(=O)N1CC(Oc2cccc(C(F)(F)F)c2)C1 | 71 to 73 °C
CC1(O)C=CC2C3CCC4=CC(=O)CCC4C3C(c3ccc(-c4ccc(C#N)cc4)cc3)CC21C (centres undefined) | 206 °C
NC(=O)N(O)Cc1ccc(N2CCC(=O)CC2)cc1 | 138 to 140 °C
CCN(CC)C(=O)n1ccc(S(=O)(=O)c2c(C)cccc2OC)n1 | 71 to 73 °C
Fc1ccccc1C1=NCCN(C2=NCCO2)c2ccc(Cl)cc21 | 162 to 164 °C
CCc1c(C)[nH]c(=O)c(I)c1Oc1cc(I)cc(CC#N)c1 | 220 °C
NC(C(=O)O)c1ccc(CC(=O)O)cc1 (centres undefined) | 250 °C
CCOC(=O)C=Cc1ccc(N(CCOC)C(=O)c2ccncc2)cc1 | 98.4 to 102 °C
CC1(C)Oc2cc(N)c([N+](=O)[O-])cc2[C@@H](N2CCCC2=O)[C@@H]1O (relative stereo) | 310 to 313 °C
CCOC(=O)c1ccc2c(c1)C(=O)N(C1CC(C)(C)N(C(C)=O)C(C)(C)C1)C2=O | 119 to 121 °C
CCc1nc(=O)[nH]c2cc(OC)c(OC)cc12 | 263 to 265 °C
O=C(c1ccccc1)c1ccc(-c2ccc(-c3ccc(-c4ccc(C(=O)c5ccccc5)s4)s3)s2)s1 | 307 to 310 °C
CCCCCCCCCCCCCCCCCC(=O)OC1CC(C)(C)N(OC(C)=O)C(C)(C)C1 | 63 to 70 °C
CCOc1c(-c2ccc3cc(NS(C)(=O)=O)ccc3c2)cc(-n2ccc(=O)[nH]c2=O)cc1C(C)(C)C | 196 to 202 °C
O=C(CCl)NC(=O)Nc1cc(C(F)(F)F)cc(C(F)(F)F)c1 | 170 °C
COc1cc2c3ccc(OC)c(OC)c3n(C(=O)c3cccc([N+](=O)[O-])c3)c2cc1OC | 187 to 191 °C
CCCOCCOc1ccc(OCC(O)CNCCNc2cc(=O)n(C)c(=O)n2C)cc1 (centres undefined) | 125 °C
CC(C)(O)c1ccc(CNC(=O)c2cccnc2Oc2cccc(F)c2)cc1 | 106 to 108 °C
Cc1ccc(S(=O)(=O)NC(=O)C2C(=O)CC(C)(C)CC2=O)cc1 | 94 to 108 °C

SMILES | melting point
O=C(O)C(Cl)(Cl)CCCCCCCCCCCCBr | 59 to 60 °C
CCOC(=O)C(C#N)=C(c1ccc(F)cc1)c1ccc(F)cc1 | 114 to 116 °C
CC(=O)Nc1ccc(C(=O)c2cc(-c3ccc(Cl)cc3)c(N3CCOCC3)s2)cc1 | 125 to 127 °C
CCOc1ccc(N2CC(C(=O)OC)CC2=O)cc1 (centres undefined) | 67 to 69 °C
O=C(Cc1ccc(Cl)cc1)c1ccc(Cl)cc1Cl | 65 to 66 °C
O=C(NCc1ccc(Cl)cc1)c1cn(Cc2ccccc2)c2sc(CN3CCOCC3)cc2c1=O | 225 to 226 °C
Cc1cc(C)c2c(c1Br)CCC2=O | 103 °C
CCCCNc1c(CO)cnc2c1cnn2CC | 60 to 72 °C
COc1cc2cc(COC(C)=O)c(COC(C)=O)c(C)c2cc1OC | 130 to 131 °C
CSc1ccc2c(n1)C(c1ccccc1)=[N+]([O-])Cc1nncn1-2 | 190 to 192 °C
O=C(CCc1ccccc1)Nc1ccc([N+](=O)[O-])cc1 | 117 to 119 °C
CS(=O)c1ccc(-n2cnc3ccc(-c4nnc(S)o4)cc32)cc1 (centres undefined) | 299 to 300 °C
Cc1nc2ccc3ccc(CNc4ccc5c(c4)CN([C@@H](CCC(=O)O)C(=O)N[C@@H](Cc4ccccc4)C(=O)O)C5=O)cc3c2c(=O)[nH]1 | 180 °C
COc1cccc2c1C[C@H]1C[C@@H](CCN3CCN(C(c4ccccc4)c4ccccc4)CC3)CN(C)[C@@H]1C2 | 140 to 148 °C
CCC(Oc1ccc(CCC(=O)c2ccc(-c3ccc(C(F)(F)F)cc3)s2)c(Cl)c1Cl)C(=O)O (centres undefined) | 169 to 171 °C
Cc1n[nH]c(CCCCn2cnc(NC(N)=NCC(F)(F)F)n2)n1 | 175 to 176 °C
COc1ccc(C=CCN2CCC3(CC2)CN(C(=O)c2ccnc(Cl)c2)c2ccc(Cl)cc23)cc1 | 83 to 85 °C
Cc1cc(CCCCCOc2c(Cl)cc(C3=NCCO3)cc2Cl)on1 | 42 to 43 °C
CC(C)(C)OC(=O)CCN1CCC(O)(c2ccc(O)cc2CO)CC1 | 68 to 70 °C

SMILES | melting point
COc1ccccc1C(=O)OC(=C1C(=O)N(C(N)=O)c2cc(Cl)c(F)cc21)c1cccs1 | 219 to 221 °C
CON(C)C(=O)c1ccc(C(F)(F)F)cc1O | 69 to 70 °C
COC(=O)c1nc(OC)n2c1CN=C(c1ccccc1Cl)c1cc(Cl)ccc1-2 | 155 to 160 °C
CC1(C)CC(=O)Nc2c(Br)cc3c(c21)OC(CN=[N+]=[N-])C3 (centres undefined) | 187 to 189 °C
O=C(O)CCC1(CCC(=O)O)CCC(=O)N1 | 162 to 164 °C
CS(=O)(=O)CCCC(=O)NNC(=O)N1Cc2ccccc2Oc2ccc(Cl)cc21 | 198 to 199 °C
COc1ccc(C(=O)Oc2ccc(C(=O)O)c(O)c2)cc1C12CC3CC(CC(C3)C1)C2 | 243 to 244 °C
CC(C)(C)OC(=O)Nc1cc(C(F)(F)F)ccc1-c1cc(Oc2ccc3cccnc3c2)ncn1 | 159 to 162 °C
Nc1sc2c(c1C(=O)c1ccc(Cl)s1)CCCC2 | 173 to 175 °C
CNC(=O)Oc1cccc(NC(=O)CC(C)=O)c1 | 142 °C
CC(=O)NCCSc1c(Cl)cc([N+](=O)[O-])c(C)c1[N+](=O)[O-] | 152 °C
O=C(O)CP(=O)(O)CCCCc1ccccc1 | 110 °C
COC(N)=CC(=O)C(C)(C)C | 79 to 79.5 °C
CC(C)C(=O)NS(=O)(=O)c1cccc(N)c1 | 110 to 112 °C
CN1CCc2ccc(OCCCCN3CCN(c4cccc(Cl)c4Cl)CC3)cc2NC1=O | 139 to 140 °C
CN1CCN(Cc2c(C(=O)O)nc3c(=O)[nH]c4cc(C(F)(F)F)ccc4n23)CC1 | > 240 °C
COc1ccc2[nH]c3c(c2c1)C1C(=O)NC(=O)C1C(C(=O)OCc1ccccc1)C3 (centres undefined) | 179 to 181 °C
CCOC(=O)c1cn(-c2nc(OC)c(F)cc2F)c2c(Cl)c(F)c(F)cc2c1=O | 140 to 143 °C

More lines, now with the values ahead:

melting point | SMILES
130 to 132 °C | CCCSc1ncc(C(=O)N[C@@H](Cc2c[nH]cn2)C(=O)O)n1Cc1ccccc1Cl
182 °C | CCS(=O)c1cccc(-c2nc(=O)c3ccccc3s2)n1 (centres undefined)
144 to 145 °C | CCOC(=O)c1c(Cn2cncn2)nc2sc(C)c(C)c2c1-c1ccc(Cl)cc1
105 to 109 °C | COC(=O)c1cc(-c2ccccc2C)c(C(=O)OC)cc1I
190 to 193 °C | CCCCN(Cc1ccccc1)CC1CCc2c(C)cc3c(c2C1=O)CCC(=O)N3 (centres undefined)
155 to 158 °C | CC1(C)CC(=O)C(c2cccc(Cl)c2)C(=O)C1
70 to 71 °C | CSc1nc(Br)cc(Oc2cccc(C(F)(F)F)c2)n1
195 °C | CCOP(=O)(CCNC1CCN(S(=O)(=O)c2ccc(Nc3nccc(Nc4ccc(F)cc4)n3)cc2)CC1)OCC
95 °C | CC1(C)Cc2cccc(CCN3CCN(c4nsc5ccccc45)CC3)c2NC1=O
> 400 °C | O=C(O)c1ccc(-c2ccc(C(=O)O)cn2)nc1
196 to 198 °C | NCc1c(-c2ccc(Oc3ccccc3)cc2)c2c(N)ncnc2n1C1CCCC1
74 to 76 °C | CN(C)c1nc(N(C)C)c2ccccc2n1
164 to 165 °C | COC(=O)c1ccc(/C=C/c2nc(-c3ccccc3)oc2C)cc1
103 to 105 °C | CC(C)CCc1cc2nnc(-c3ccccc3F)n2nc1OCc1ncnn1C
172 to 173 °C | COC(=O)c1ccccc1NC1C=CC(=O)O1 (centres undefined)
170 °C | Cc1ccc(CCN2CCN(c3noc4ccccc34)CC2)c2c1C(C)(C)CC(=O)N2
194 to 195 °C | CC1(c2ccccc2)CN(c2ccnc(NC(=O)NCc3ccccn3)c2)C(=O)O1 (centres undefined)
106 to 107 °C | OCCCc1cn(-c2ccc(C(F)(F)F)cn2)nc1C1CCCCC1
127 to 130 °C | COC(=O)c1cc2ccc(Sc3ccc(C)cc3)nc2s1
166 to 168 °C | CC(C)c1ccc(-c2nsc(-c3cccc(C(=O)O)c3)n2)cc1
198 °C | Cc1cccc2c(=O)nc(-c3ccccn3)sc12
192 to 194 °C | O=C1CCC(CCc2ccc(-c3ccccc3)cc2)N1O (centres undefined)

melting point | SMILES
116 to 117 °C | CC(CSC(=O)c1ccccc1)C(=O)N1c2ccccc2CC1C(=O)O (centres undefined)
154 to 156 °C | CCOC(=O)C(=NOC)c1nc(N)cc(Sc2ccccc2)n1
225 to 228 °C | C=C(C)c1cc(O)cc2nc(-c3ccc(O)cc3)oc12
240 to 244 °C | Cc1c[nH]c2c(=O)n(CC(=O)NC3CC(=O)OC3OCc3ccccc3)cnc12 (centres undefined)
184 to 186 °C | Fc1ccc(-n2cc(C3CCN(CCN4CCNC4=S)CC3)c3ccc(Cl)cc32)cc1
191 to 192 °C | c1ccc2c(c1)ncc1nc(C3CCC3)[nH]c12
188 to 190 °C | O=C(Nc1cc(F)c(-c2cccnc2)c(F)c1)OCc1ccccc1
98 °C | O=C(c1cccs1)c1cnn2c(-c3cccc(-c4nnn(CCN5CCCC5)n4)c3)ccnc12
74 to 90 °C | CN1CC(CCN(C)c2ccccc2)N(C)c2nc3ccccc3n2C1=O (centres undefined)
217 to 219 °C | N#Cc1cccc(-c2ccc3c(c2)C2(CCCC2)C(=O)N3)c1
143 to 144 °C | COc1cc(C)c(C)cc1NC(=O)N1CCN(c2ccccc2)CC1
155 to 156 °C | O=C(Cc1ccc(Cl)c(Cl)c1)N1CCc2occc2C1CO (centres undefined)
196 to 198 °C | CCCNC(=O)Nc1ccc(SC)cc1C(=O)NCC1CCN(C(c2ccccc2)c2ccccc2)CC1
182 to 183 °C | N#Cc1ncn(-c2cccc(Cl)c2F)c1I
198 to 199 °C | COc1ccc(/C=C/c2ccc3c(=O)n(-c4ccccc4)ncc3c2)cc1
127 to 129 °C | COc1ccc(CCN2CCC(C(O)c3nc4ccccc4s3)CC2)cc1 (centres undefined)
111 to 113 °C | Brc1cccc(Oc2ncccc2OCCCc2ccncc2)c1
227 °C | Cc1cc(-c2ccc(Cl)cc2)nc(-c2cccc(-c3ccc(S(N)(=O)=O)s3)c2)n1
137 to 138 °C | Fc1cc2c(c(OCCNCCCc3c[nH]c4ccc(F)cc34)c1)OCCC2
147 to 148 °C | CN1CCC(=C2c3ccccc3-c3cocc3-c3ccccc32)CC1
75 to 76 °C | CCOC(=O)c1cc(=O)c2c(OCC(O)COc3ccccc3C)cccc2o1 (centres undefined)
